# Tests used:
# 5-HT1B = target: T1, 5-HT1B (Homo sapiens, UniProt P28222); test: PDSP primary binding, 5-HT1B; settings: n = 4, negative inhibition = stimulation of binding, read-out: Inhibition (primary binding competition efficacy), 5-HT1B
# T1 construct: purchased NIMH Psychoactive Drug Screening Program (PDSP)
# Protocol: (§1) For experimental details, please refer to the Psychoactive Drug Screening Program (PDSP) web site http://pdsp.med.unc.edu/.
# (§2) ^a The default concentration for primary binding experiments is 10 µM (n = 4). ^b Negative inhibition represents a stimulation of binding. ^c BZPR: Benzodiazepine Receptors (rat brain site). ^d DOR: Delta Opioid Receptor; KOR: Kappa Opioid Receptor; MOR: Mu Opioid Receptor. ^e DAT: Dopamine Transporter; NET: Norepinephrine Transporter; SERT: Serotonin Transporter. ^f NMDA: N-methyl-D-aspartate receptor.
# CYP2C19 = target: T2, CYP2C19 (Homo sapiens, UniProt P33261); test: CYP2C19 inhibition, HLM, omeprazole substrate; assay type: in vitro ADME; settings: 1.0E-05 M
# T2 construct: from tissue; host or cells: human liver microsomes (HLM)
# Excerpt: (§3) Supplement prp20002-e00026-sd1.doc, table 3: Table 3.
# [1] = Bacterial cytotoxicity, strain TA1535; assay type: cell-based; settings: Salmonella typhimurium, bacterial tester strain TA1535 without S9, read-out: Cytotoxicity (% of Control Values)
# Excerpt: Supplement prp20002-e00026-sd1.doc, table 4: Table 4.
# α1B adrenergic receptor = target: T3, α1B adrenergic receptor (Homo sapiens, UniProt P35368); test: PDSP primary binding, α1B; settings: n = 4, read-out: Inhibition (primary binding competition efficacy), α1B
# T3 construct: purchased NIMH Psychoactive Drug Screening Program (PDSP)
# Protocol: as §1, §2
# [2] = tested on: 51 other CNS neurotransmitter receptors and transporters; test: Broad-range screening (PDSP), summary; assay type: binding; settings: 10 μmol/L
# Protocol: as §1, §2
# strain TA98 = test: Ames test, strain TA98; assay type: cell-based
# 5-HT5A = target: T4, 5-HT5A (Homo sapiens, UniProt P47898); test: PDSP primary binding, 5-HT5A; settings: n = 4, read-out: Inhibition (primary binding competition efficacy), 5-HT5A
# T4 construct: purchased NIMH Psychoactive Drug Screening Program (PDSP)
# Protocol: as §1, §2
# GABAA = test: PDSP primary binding, GABAA; settings: 10 µM, n = 4
# Protocol: as §1, §2
# [3] = target: T5, SERT: Serotonin Transporter (Homo sapiens, UniProt P31645); test: PDSP primary binding, SERT; settings: n = 4, read-out: Inhibition (primary binding competition efficacy), SERT
# T5 construct: purchased NIMH Psychoactive Drug Screening Program (PDSP)
# Protocol: as §1, §2
# MOR: Mu Opioid Receptor = target: T6, MOR: Mu Opioid Receptor (Homo sapiens, UniProt P35372); test: PDSP primary binding, MOR; settings: n = 4, read-out: Inhibition (primary binding competition efficacy), MOR
# T6 construct: purchased NIMH Psychoactive Drug Screening Program (PDSP)
# Protocol: as §1, §2
# 5-HT2A = target: T7, 5-HT2A (Homo sapiens, UniProt P28223); test: PDSP primary binding, 5-HT2A; settings: n = 4, read-out: Inhibition (primary binding competition efficacy), 5-HT2A
# T7 construct: purchased NIMH Psychoactive Drug Screening Program (PDSP)
# Protocol: as §1, §2
# strain TA100 = test: Ames test, strain TA100; assay type: cell-based
# [4] = target: T8, DAT: Dopamine Transporter (Homo sapiens, UniProt Q01959); test: PDSP primary binding, DAT; settings: n = 4, read-out: Inhibition (primary binding competition efficacy), DAT
# T8 construct: purchased NIMH Psychoactive Drug Screening Program (PDSP)
# Protocol: as §1, §2
# 5-HT1E = target: T9, 5-HT1E (Homo sapiens, UniProt P28566); test: PDSP primary binding, 5-HT1E; settings: n = 4, read-out: Inhibition (primary binding competition efficacy), 5-HT1E
# T9 construct: purchased NIMH Psychoactive Drug Screening Program (PDSP)
# Protocol: as §1, §2
# CYP2D6 = target: T10, CYP2D6 (Homo sapiens, UniProt P10635); test: CYP2D6 inhibition, HLM, dextromethorphan substrate; assay type: in vitro ADME; settings: 1.0E-05 M
# T10 construct: from tissue; host or cells: human liver microsomes (HLM)
# Excerpt: as §3
# [5] = with or without S9, 5, 10, 50, or 100 μmol/L
# T5 sequence (P31645 whole entry): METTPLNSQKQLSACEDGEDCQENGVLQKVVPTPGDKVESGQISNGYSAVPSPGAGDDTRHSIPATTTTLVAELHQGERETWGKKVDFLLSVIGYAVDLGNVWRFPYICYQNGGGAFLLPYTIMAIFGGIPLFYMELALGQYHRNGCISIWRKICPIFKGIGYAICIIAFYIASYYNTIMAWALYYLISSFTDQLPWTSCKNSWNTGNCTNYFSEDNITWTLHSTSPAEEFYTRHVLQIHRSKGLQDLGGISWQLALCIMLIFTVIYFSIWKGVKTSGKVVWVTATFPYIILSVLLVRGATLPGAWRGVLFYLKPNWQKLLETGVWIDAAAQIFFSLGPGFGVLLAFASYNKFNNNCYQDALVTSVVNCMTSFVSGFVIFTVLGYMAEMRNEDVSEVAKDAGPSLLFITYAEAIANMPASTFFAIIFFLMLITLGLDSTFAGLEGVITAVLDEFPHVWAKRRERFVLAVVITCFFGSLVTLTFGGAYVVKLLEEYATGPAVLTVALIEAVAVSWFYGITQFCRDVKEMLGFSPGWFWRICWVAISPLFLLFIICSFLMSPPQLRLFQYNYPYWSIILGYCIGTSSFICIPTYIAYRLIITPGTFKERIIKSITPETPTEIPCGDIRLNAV
# T9 sequence (P28566 whole entry): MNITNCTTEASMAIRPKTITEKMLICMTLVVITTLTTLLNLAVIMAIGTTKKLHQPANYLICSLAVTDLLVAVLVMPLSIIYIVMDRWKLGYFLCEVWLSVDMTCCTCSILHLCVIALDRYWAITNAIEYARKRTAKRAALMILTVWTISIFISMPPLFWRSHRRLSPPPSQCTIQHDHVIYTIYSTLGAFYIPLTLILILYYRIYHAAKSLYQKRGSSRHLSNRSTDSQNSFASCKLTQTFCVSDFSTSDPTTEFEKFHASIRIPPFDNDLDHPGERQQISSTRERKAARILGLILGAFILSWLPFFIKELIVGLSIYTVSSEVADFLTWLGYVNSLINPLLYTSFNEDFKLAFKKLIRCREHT
# T1 sequence (P28222 whole entry): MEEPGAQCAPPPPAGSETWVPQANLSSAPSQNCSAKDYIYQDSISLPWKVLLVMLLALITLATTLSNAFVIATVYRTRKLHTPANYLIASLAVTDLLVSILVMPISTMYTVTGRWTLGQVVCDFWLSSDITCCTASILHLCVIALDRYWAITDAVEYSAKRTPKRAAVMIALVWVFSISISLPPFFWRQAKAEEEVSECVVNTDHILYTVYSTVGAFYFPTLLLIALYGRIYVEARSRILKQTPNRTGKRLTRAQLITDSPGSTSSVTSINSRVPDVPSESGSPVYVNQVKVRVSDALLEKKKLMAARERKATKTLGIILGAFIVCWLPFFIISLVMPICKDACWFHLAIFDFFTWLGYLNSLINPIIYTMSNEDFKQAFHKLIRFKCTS
# T8 sequence (Q01959 whole entry): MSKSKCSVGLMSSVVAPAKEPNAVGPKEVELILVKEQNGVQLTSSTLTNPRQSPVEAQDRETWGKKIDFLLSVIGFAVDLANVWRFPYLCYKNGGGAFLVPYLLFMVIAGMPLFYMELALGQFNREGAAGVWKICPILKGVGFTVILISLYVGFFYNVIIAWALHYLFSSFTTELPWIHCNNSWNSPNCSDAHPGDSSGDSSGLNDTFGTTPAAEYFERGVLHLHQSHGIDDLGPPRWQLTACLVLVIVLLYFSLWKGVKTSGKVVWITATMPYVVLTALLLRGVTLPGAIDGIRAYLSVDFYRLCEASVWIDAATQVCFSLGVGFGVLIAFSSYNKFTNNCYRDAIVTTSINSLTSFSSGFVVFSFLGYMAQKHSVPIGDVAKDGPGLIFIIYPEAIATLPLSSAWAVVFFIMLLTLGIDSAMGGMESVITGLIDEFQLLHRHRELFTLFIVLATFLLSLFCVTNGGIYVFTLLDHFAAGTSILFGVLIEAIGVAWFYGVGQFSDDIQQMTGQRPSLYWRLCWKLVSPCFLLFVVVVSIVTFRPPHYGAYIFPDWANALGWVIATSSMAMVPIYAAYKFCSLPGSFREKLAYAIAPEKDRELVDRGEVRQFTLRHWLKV
# T10 sequence (P10635 whole entry): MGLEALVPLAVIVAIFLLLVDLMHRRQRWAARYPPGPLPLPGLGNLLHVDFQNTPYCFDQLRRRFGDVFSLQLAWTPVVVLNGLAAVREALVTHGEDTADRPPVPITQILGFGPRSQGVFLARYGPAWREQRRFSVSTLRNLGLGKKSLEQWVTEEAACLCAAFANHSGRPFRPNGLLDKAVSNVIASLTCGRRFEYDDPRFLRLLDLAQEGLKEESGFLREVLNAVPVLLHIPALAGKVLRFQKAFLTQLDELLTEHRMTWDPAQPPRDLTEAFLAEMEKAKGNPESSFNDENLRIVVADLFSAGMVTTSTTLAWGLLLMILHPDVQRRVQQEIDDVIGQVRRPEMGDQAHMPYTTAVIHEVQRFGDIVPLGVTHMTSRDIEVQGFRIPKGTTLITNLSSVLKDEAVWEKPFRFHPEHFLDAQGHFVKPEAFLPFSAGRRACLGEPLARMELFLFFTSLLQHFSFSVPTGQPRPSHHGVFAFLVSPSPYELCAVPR
# T3 sequence (P35368 whole entry): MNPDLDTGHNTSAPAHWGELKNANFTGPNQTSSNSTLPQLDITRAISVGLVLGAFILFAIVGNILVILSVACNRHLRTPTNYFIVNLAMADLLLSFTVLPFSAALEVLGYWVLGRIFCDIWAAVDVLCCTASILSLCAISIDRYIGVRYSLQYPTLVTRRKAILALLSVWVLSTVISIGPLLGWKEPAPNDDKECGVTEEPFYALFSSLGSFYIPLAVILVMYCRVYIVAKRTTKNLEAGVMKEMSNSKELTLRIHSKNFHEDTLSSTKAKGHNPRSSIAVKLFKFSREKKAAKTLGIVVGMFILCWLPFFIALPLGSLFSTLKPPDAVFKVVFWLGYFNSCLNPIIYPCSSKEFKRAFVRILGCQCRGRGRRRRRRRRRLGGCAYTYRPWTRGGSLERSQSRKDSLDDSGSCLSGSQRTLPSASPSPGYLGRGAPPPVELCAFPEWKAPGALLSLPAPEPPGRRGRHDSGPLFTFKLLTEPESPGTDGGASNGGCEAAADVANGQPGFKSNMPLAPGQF
# T2 sequence (P33261 whole entry): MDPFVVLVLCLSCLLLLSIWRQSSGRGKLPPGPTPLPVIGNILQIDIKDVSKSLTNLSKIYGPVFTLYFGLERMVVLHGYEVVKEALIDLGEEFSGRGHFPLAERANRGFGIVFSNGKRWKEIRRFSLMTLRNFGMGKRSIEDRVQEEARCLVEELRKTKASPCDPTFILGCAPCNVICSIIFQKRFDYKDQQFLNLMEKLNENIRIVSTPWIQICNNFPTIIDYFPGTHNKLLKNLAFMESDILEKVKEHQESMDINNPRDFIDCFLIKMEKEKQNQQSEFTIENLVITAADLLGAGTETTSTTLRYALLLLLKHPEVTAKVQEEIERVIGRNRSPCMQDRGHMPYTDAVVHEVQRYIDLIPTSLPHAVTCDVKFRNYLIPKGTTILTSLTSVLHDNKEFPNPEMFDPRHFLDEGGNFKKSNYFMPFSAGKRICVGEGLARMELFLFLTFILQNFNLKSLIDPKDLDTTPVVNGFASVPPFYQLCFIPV
# T4 sequence (P47898 whole entry): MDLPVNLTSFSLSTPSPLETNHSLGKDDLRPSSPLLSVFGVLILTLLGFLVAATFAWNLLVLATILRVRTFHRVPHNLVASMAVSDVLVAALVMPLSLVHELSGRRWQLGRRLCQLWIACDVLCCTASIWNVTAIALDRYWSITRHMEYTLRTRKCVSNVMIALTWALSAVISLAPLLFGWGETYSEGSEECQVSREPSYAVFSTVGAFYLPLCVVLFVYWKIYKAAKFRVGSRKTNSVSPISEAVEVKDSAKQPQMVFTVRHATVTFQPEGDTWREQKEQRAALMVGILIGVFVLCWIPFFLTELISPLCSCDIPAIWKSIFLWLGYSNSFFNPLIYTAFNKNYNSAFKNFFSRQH
# T6 sequence (P35372 whole entry): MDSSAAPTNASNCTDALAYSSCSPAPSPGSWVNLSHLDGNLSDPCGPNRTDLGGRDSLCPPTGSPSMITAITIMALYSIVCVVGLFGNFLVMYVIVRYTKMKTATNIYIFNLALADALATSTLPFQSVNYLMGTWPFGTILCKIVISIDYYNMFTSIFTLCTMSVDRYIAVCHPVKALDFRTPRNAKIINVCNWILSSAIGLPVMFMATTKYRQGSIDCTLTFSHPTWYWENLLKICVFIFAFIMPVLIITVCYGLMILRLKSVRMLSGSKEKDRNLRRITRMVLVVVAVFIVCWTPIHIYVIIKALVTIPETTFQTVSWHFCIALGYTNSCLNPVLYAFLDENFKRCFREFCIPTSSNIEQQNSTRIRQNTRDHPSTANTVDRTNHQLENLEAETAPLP
# T7 sequence (P28223 whole entry): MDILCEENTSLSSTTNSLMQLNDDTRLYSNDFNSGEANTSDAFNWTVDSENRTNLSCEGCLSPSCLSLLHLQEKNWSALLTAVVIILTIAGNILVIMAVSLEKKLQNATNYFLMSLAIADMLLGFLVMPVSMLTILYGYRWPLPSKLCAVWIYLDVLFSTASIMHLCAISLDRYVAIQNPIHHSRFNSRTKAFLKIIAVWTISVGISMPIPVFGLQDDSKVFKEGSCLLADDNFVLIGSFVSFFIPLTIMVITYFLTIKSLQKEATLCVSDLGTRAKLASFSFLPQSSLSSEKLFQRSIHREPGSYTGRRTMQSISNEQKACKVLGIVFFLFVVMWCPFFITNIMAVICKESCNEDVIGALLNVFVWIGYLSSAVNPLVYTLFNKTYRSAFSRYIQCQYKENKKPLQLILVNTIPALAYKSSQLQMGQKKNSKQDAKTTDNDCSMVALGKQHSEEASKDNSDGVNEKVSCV
compound,measurement,setting,value
"OCCc1cc(-c2cncc(OC[C@@H]3CCN3)c2)on1 [LF-3-88, 2-[5-[5-(2(S)-azetidinylmethoxyl)-3-pyridyl]-3-isoxazolyl]ethanol]",inhibition at 10 µM,5-HT1B,-7.9%
same,CYP2C19 Inhibition,CYP2C19,10%
same,viability at 0.0001 M,"[1]; strain TA1535 – S9, 1.0E-04 M",117%
same,viability at 10 µM,"[1]; strain TA1535 – S9, 1.0E-05 M",97%
same,viability at 1.25 µM,"[1]; strain TA1535 – S9, 1.25E-06 M",105%
same,viability at 25 µM,"[1]; strain TA1535 – S9, 2.5E-05 M",104%
same,viability at 2.5 µM,"[1]; strain TA1535 – S9, 2.5E-06 M",102%
same,viability at 50 µM,"[1]; strain TA1535 – S9, 5.0E-05 M",109%
same,viability at 5 µM,"[1]; strain TA1535 – S9, 5.0E-06 M",100%
same,viability at 625 nM,"[1]; strain TA1535 – S9, 6.25E-07 M",99%
same,inhibition at 10 µM,α1B adrenergic receptor,-1.8%
same,inhibition across 51 other CNS neurotransmitter receptors and transporters,[2],≤ 50%
same,Ames test Result,"strain TA98; strain TA98 + S9, 1.0E-04 M",Negative
same,Ames test Result,"strain TA98; strain TA98 + S9, 1.0E-05 M",Negative
same,Ames test Result,"strain TA98; strain TA98 + S9, 5.0E-05 M",Negative
same,Ames test Result,"strain TA98; strain TA98 + S9, 5.0E-06 M",Negative
same,Ames test Result,"strain TA98; strain TA98 – S9, 1.0E-04 M",Negative
same,Ames test Result,"strain TA98; strain TA98 – S9, 1.0E-05 M",Negative
same,Ames test Result,"strain TA98; strain TA98 – S9, 5.0E-05 M",Negative
same,Ames test Result,"strain TA98; strain TA98 – S9, 5.0E-06 M",Negative
same,"mutagenic potential (Ames), TA98",strain TA98; [5],negative
same,inhibition at 10 µM,5-HT5A,13.2%
same,"Inhibition (primary binding competition efficacy), GABAA",GABAA,-7.6%
same,inhibition at 10 µM,[3],-0.2%
same,inhibition at 10 µM,MOR: Mu Opioid Receptor,5.7%
same,inhibition at 10 µM,5-HT2A,34.1%
same,Ames test Result,"strain TA100; strain TA100 + S9, 1.0E-04 M",Negative
same,Ames test Result,"strain TA100; strain TA100 + S9, 1.0E-05 M",Negative
same,Ames test Result,"strain TA100; strain TA100 + S9, 5.0E-05 M",Negative
same,Ames test Result,"strain TA100; strain TA100 + S9, 5.0E-06 M",Negative
same,Ames test Result,"strain TA100; strain TA100 – S9, 1.0E-04 M",Negative
same,Ames test Result,"strain TA100; strain TA100 – S9, 1.0E-05 M",Negative
same,Ames test Result,"strain TA100; strain TA100 – S9, 5.0E-05 M",Negative
same,Ames test Result,"strain TA100; strain TA100 – S9, 5.0E-06 M",Negative
same,"mutagenic potential (Ames), TA100",strain TA100; [5],negative
same,inhibition at 10 µM,[4],18.6%
same,inhibition at 10 µM,5-HT1E,-3%
same,CYP2D6 Inhibition,CYP2D6,-0.4%

# — paper PMC4184702 (Pharmacology Research & Perspectives, 2014)
